Results reported in article PMC3399817 (PLoS ONE, 2012).

Columns and labels:
Assay in all cases: KINOMEscan
Assay type in all cases: binding
DMPK = target: T1, DMPK (Homo sapiens, UniProt Q09013); conditions: 1 uM
T1 construct: purchased Ambit KINOMEscan (DiscoverX)
Method: (§1) First, we used Ambit's KINOMEscan™ technology to identify those kinases that are inhibited for substrate binding by the compounds, all assayed at 1 μM. Second, we used Invitrogen's SelectScreen® Biochemical Kinase Profiling Service to determine the in vitro IC50s for the compounds against specific kinases.

[1] = target: T2, ABL1(F317I)-nonphosphorylated (Homo sapiens, UniProt P00519, F317I); conditions: 1 uM
T2 construct: purchased Ambit KINOMEscan (DiscoverX)
Method: as §1

MYO3B = target: T3, MYO3B (Homo sapiens, UniProt Q8WXR4); conditions: 1 uM
T3 construct: purchased Ambit KINOMEscan (DiscoverX)
Method: as §1

KIT(D816V) = target: T4, KIT(D816V) (Homo sapiens, UniProt P10721, D816V); conditions: 1 uM
T4 construct: purchased Ambit KINOMEscan (DiscoverX)
Method: as §1

ASK2 = target: T5, ASK2 (Homo sapiens, UniProt O95382); conditions: ASK2, 1 uM
T5 construct: purchased Ambit KINOMEscan (DiscoverX)
Method: as §1

PIM2 = target: T6, PIM2 (Homo sapiens, UniProt Q9P1W9); conditions: PIM2, 1 uM
T6 construct: purchased Ambit KINOMEscan (DiscoverX)
T6 sequence (Q9P1W9 whole entry): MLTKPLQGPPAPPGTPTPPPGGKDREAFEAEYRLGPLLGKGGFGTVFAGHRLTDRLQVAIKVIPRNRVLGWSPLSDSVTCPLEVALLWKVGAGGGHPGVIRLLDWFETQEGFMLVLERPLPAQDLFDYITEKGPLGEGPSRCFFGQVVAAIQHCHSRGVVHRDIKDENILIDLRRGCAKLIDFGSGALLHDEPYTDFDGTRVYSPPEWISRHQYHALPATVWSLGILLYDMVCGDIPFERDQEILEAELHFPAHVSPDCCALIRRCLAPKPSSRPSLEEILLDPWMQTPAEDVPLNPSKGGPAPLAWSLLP
Method: as §1

[2] = target: T7, ABL1(Q252H)-nonphosphorylated (Homo sapiens, UniProt P00519, Q252H); conditions: 1 uM
T7 construct: purchased Ambit KINOMEscan (DiscoverX)
Method: as §1

KIT = target: T8, KIT (Homo sapiens, UniProt P10721); conditions: 1 uM
T8 construct: purchased Ambit KINOMEscan (DiscoverX)
Method: as §1

ACVRL1 = target: T9, ACVRL1 (Homo sapiens, UniProt P37023); conditions: ACVRL1, 1 uM
T9 construct: purchased Ambit KINOMEscan (DiscoverX)
Method: as §1

CDKL2 = target: T10, CDKL2 (Homo sapiens, UniProt Q92772); conditions: CDKL2, 1 uM
T10 construct: purchased Ambit KINOMEscan (DiscoverX)
Method: as §1

TIE2 = target: T11, TIE2 (Homo sapiens, UniProt Q02763); conditions: TIE2, 1 uM
T11 construct: purchased Ambit KINOMEscan (DiscoverX)
Method: as §1

YES = target: T12, YES (Homo sapiens, UniProt P07947); conditions: 1 uM
T12 construct: purchased Ambit KINOMEscan (DiscoverX)
Method: as §1

CSNK1D = target: T13, CSNK1D (Homo sapiens, UniProt P48730); conditions: 1 uM
T13 construct: purchased Ambit KINOMEscan (DiscoverX)
T13 sequence (P48730 whole entry): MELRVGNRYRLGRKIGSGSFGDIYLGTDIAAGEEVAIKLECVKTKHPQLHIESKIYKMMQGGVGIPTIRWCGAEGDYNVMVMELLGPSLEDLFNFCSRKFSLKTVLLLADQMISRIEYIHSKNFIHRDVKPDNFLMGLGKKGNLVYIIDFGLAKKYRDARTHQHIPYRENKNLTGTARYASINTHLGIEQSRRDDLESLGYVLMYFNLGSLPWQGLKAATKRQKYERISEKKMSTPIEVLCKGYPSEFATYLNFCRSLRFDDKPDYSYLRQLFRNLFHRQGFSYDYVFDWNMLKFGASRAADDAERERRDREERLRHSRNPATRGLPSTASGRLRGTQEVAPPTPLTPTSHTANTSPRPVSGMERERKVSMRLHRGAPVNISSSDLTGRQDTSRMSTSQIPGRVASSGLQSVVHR
Method: as §1

MRCKA = target: T14, MRCKA (Homo sapiens, UniProt Q5VT25); conditions: 1 uM
T14 construct: purchased Ambit KINOMEscan (DiscoverX)
T14 sequence (Q5VT25 whole entry): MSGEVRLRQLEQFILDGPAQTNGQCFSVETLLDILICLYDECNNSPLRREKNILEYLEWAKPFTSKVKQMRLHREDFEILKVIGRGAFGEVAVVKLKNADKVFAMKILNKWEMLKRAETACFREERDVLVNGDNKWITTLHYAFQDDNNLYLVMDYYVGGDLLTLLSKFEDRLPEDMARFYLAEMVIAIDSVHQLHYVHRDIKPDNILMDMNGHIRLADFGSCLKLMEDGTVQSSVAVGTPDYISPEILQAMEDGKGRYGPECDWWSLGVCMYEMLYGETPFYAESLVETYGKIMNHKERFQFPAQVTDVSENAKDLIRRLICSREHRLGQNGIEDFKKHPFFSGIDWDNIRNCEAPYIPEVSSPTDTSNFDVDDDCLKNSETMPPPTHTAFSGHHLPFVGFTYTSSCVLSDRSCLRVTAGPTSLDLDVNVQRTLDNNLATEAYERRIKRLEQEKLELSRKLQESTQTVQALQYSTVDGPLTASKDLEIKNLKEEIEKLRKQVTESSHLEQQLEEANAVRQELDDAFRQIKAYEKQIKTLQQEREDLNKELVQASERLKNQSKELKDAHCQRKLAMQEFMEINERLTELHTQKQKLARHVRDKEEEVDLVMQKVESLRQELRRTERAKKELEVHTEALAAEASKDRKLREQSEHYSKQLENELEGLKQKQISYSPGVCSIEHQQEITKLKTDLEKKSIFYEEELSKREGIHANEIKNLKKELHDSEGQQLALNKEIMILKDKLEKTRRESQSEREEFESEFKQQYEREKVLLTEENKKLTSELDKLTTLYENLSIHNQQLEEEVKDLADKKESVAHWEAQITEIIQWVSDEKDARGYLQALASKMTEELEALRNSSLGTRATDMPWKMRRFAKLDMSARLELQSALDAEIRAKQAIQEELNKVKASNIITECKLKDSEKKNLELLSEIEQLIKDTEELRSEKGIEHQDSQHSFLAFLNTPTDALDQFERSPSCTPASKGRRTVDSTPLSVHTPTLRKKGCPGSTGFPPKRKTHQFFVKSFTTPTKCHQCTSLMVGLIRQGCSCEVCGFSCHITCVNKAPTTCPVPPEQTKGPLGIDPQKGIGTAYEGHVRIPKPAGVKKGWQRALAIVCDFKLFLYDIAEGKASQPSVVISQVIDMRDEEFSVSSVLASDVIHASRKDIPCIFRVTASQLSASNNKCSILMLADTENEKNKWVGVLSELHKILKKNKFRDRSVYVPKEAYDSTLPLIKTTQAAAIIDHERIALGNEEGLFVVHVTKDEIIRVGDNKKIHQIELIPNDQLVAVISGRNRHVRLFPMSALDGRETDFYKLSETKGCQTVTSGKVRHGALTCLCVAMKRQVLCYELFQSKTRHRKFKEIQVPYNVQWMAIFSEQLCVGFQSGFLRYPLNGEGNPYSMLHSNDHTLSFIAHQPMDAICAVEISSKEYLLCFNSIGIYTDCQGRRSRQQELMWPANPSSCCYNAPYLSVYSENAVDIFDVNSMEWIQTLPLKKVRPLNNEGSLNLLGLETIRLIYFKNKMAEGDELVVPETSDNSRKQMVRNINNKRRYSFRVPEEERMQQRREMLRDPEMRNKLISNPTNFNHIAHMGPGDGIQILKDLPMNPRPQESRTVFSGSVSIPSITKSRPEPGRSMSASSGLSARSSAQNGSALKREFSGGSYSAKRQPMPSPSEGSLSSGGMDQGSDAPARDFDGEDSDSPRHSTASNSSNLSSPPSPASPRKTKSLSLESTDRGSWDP
Method: as §1

PIP5K2B = target: T15, PIP5K2B (Homo sapiens, UniProt P78356); conditions: 1 uM
T15 construct: purchased Ambit KINOMEscan (DiscoverX)
Method: as §1

[3] = target: T16, RPS6KA5(Kin.Dom.2-C-terminal) (Homo sapiens, UniProt O75582); conditions: 1 uM
T16 construct: RPS6KA5(Kin.Dom.2-C-terminal); purchased Ambit KINOMEscan (DiscoverX)
Method: as §1

FLT3(D835H) = target: T17, FLT3(D835H) (Homo sapiens, UniProt P36888, D835H); conditions: 1 uM
T17 construct: purchased Ambit KINOMEscan (DiscoverX)
Method: as §1

MST1 = target: T18, MST1 (Homo sapiens, UniProt Q13043); conditions: MST1, 1 uM
T18 construct: purchased Ambit KINOMEscan (DiscoverX)
Method: as §1

AMPK-alpha1 = target: T19, AMPK-alpha1 (Homo sapiens, UniProt Q13131); conditions: AMPK-alpha1, 1 uM
T19 construct: purchased Ambit KINOMEscan (DiscoverX)
Method: as §1

BMPR1A = target: T20, BMPR1A (Homo sapiens, UniProt P36894); conditions: 1 uM
T20 construct: purchased Ambit KINOMEscan (DiscoverX)
T20 sequence (P36894 24-532): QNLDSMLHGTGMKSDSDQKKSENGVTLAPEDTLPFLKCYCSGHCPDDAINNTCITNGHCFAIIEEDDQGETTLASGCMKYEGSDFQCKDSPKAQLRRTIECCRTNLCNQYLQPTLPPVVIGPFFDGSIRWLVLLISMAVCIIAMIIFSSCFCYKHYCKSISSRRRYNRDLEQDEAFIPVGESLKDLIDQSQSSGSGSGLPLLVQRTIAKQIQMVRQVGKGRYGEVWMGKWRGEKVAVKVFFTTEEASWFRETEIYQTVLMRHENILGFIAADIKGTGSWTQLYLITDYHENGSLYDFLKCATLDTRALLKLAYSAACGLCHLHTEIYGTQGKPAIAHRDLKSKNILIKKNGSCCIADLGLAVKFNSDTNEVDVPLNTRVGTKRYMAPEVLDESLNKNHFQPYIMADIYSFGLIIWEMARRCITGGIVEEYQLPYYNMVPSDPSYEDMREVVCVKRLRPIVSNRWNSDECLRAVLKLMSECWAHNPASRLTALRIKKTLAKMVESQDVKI
Method: as §1

[4] = target: T21, ABL1(E255K)-phosphorylated (Homo sapiens, UniProt P00519, E255K); conditions: 1 uM
T21 construct: purchased Ambit KINOMEscan (DiscoverX)
Method: as §1

PIK3CA(Q546K) = target: T22, PIK3CA(Q546K) (Homo sapiens, UniProt P42336, Q546K); conditions: 1 uM
T22 construct: purchased Ambit KINOMEscan (DiscoverX)
Method: as §1

TTK = target: T23, TTK (Homo sapiens, UniProt P33981); conditions: 1 uM
T23 construct: purchased Ambit KINOMEscan (DiscoverX)
Method: as §1

MKNK1 = target: T24, MKNK1 (Homo sapiens, UniProt Q9BUB5); conditions: MKNK1, 1 uM
T24 construct: purchased Ambit KINOMEscan (DiscoverX)
Method: as §1

CLK2 = target: T25, CLK2 (Homo sapiens, UniProt P49760); conditions: CLK2, 1 uM
T25 construct: purchased Ambit KINOMEscan (DiscoverX)
Method: as §1

EGFR(L858R) = target: T26, EGFR(L858R) (Homo sapiens, UniProt P00533, L858R); conditions: 1 uM
T26 construct: purchased Ambit KINOMEscan (DiscoverX)
Method: as §1

FGFR2 = target: T27, FGFR2 (Homo sapiens, UniProt P21802); conditions: FGFR2, 1 uM
T27 construct: purchased Ambit KINOMEscan (DiscoverX)
T27 sequence (P21802 22-821): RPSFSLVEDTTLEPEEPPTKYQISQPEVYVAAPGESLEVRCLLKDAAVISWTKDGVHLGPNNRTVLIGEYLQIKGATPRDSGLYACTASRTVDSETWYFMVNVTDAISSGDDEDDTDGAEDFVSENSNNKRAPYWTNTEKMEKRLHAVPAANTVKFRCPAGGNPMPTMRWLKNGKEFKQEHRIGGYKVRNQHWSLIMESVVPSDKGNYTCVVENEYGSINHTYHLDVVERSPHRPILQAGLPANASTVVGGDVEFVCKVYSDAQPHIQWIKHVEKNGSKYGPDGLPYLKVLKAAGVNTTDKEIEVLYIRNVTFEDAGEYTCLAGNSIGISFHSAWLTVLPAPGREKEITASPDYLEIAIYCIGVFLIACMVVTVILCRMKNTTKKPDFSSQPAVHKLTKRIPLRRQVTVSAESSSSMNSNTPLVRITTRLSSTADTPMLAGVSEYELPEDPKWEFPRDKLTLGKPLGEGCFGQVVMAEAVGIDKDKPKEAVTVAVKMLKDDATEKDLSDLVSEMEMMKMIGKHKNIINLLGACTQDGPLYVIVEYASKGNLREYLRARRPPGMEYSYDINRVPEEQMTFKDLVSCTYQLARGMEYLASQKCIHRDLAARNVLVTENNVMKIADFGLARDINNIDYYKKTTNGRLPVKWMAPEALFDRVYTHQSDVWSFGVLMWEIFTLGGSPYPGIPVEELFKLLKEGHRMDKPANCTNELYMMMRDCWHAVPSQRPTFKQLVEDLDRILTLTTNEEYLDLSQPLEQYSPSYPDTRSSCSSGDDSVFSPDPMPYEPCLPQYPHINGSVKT
Method: as §1

PRKD2 = target: T28, PRKD2 (Homo sapiens, UniProt Q9BZL6); conditions: PRKD2, 1 uM
T28 construct: purchased Ambit KINOMEscan (DiscoverX)
Method: as §1

IGF1R = target: T29, IGF1R (Homo sapiens, UniProt P08069); conditions: 1 uM
T29 construct: purchased Ambit KINOMEscan (DiscoverX)
Method: as §1

LOK = target: T30, LOK (Homo sapiens, UniProt O94804); conditions: 1 uM
T30 construct: purchased Ambit KINOMEscan (DiscoverX)
Method: as §1

PRKD3 = target: T31, PRKD3 (Homo sapiens, UniProt O94806); conditions: PRKD3, 1 uM
T31 construct: purchased Ambit KINOMEscan (DiscoverX)
T31 sequence (O94806 whole entry): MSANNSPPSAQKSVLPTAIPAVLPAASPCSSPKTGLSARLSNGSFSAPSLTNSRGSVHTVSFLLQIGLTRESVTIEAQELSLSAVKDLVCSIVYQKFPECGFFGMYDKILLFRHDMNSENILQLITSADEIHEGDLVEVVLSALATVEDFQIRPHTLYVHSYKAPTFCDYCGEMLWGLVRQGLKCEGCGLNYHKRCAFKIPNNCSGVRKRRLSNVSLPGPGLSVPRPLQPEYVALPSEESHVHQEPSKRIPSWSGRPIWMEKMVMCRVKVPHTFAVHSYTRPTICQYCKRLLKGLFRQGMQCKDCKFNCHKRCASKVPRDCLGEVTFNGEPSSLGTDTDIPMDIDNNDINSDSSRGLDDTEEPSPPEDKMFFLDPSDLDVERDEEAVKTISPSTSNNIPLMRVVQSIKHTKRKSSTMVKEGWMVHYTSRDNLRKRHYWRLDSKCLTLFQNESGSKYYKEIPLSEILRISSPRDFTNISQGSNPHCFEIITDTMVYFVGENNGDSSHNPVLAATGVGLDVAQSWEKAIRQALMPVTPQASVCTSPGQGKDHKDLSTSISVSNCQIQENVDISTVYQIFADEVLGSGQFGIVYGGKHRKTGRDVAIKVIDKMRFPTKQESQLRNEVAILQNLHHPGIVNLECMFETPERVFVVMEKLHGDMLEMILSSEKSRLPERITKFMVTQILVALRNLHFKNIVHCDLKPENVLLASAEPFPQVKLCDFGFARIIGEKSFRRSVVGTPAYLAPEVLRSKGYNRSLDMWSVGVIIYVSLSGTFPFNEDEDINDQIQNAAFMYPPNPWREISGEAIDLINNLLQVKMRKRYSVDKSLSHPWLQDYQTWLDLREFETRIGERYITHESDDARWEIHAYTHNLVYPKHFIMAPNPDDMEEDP
Method: as §1

SgK110 = target: T32, SgK110 (Homo sapiens, UniProt P0C264); conditions: SgK110, 1 uM
T32 construct: purchased Ambit KINOMEscan (DiscoverX)
T32 sequence (P0C264 whole entry): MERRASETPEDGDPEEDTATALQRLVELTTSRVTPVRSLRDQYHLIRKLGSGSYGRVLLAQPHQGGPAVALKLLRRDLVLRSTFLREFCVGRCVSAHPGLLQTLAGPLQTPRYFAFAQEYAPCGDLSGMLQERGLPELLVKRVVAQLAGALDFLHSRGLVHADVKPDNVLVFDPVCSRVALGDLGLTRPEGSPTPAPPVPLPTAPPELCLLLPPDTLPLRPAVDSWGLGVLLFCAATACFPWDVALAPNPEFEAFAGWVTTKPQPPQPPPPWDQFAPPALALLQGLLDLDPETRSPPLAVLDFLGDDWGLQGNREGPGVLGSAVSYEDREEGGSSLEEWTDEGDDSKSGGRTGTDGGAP
Method: as §1

CHEK1 = target: T33, CHEK1 (Homo sapiens, UniProt O14757); conditions: CHEK1, 1 uM
T33 construct: purchased Ambit KINOMEscan (DiscoverX)
Method: as §1

MST4 = target: T34, MST4 (Homo sapiens, UniProt Q9P289); conditions: MST4, 1 uM
T34 construct: purchased Ambit KINOMEscan (DiscoverX)
Method: as §1

ACVR2B = target: T35, ACVR2B (Homo sapiens, UniProt Q13705); conditions: 1 uM
T35 construct: purchased Ambit KINOMEscan (DiscoverX)
Method: as §1

STK36 = target: T36, STK36 (Homo sapiens, UniProt Q9NRP7); conditions: STK36, 1 uM
T36 construct: purchased Ambit KINOMEscan (DiscoverX)
Method: as §1

MST2 = target: T37, MST2 (Homo sapiens, UniProt Q13188); conditions: MST2, 1 uM
T37 construct: purchased Ambit KINOMEscan (DiscoverX)
Method: as §1

ERBB2 = target: T38, ERBB2 (Homo sapiens, UniProt P04626); conditions: ERBB2, 1 uM
T38 construct: purchased Ambit KINOMEscan (DiscoverX)
Method: as §1

ULK3 = target: T39, ULK3 (Homo sapiens, UniProt Q6PHR2); conditions: ULK3, 1 uM
T39 construct: purchased Ambit KINOMEscan (DiscoverX)
Method: as §1

Structure (SMILES) | % binding compared to no inhibitor control (DMPK) [%] | % binding compared to no inhibitor control [1] [%] | % binding compared to no inhibitor control (MYO3B) [%] | % binding compared to no inhibitor control (KIT(D816V)) [%] | % binding compared to no inhibitor control (ASK2) [%] | % binding compared to no inhibitor control (PIM2) [%] | % binding compared to no inhibitor control [2] [%] | % binding compared to no inhibitor control (KIT) [%] | % binding compared to no inhibitor control (ACVRL1) [%] | % binding compared to no inhibitor control (CDKL2) [%] | % binding compared to no inhibitor control (TIE2) [%] | % binding compared to no inhibitor control (YES) [%] | % binding compared to no inhibitor control (CSNK1D) [%] | % binding compared to no inhibitor control (MRCKA) [%] | % binding compared to no inhibitor control (PIP5K2B) [%] | % binding compared to no inhibitor control [3] [%] | % binding compared to no inhibitor control (FLT3(D835H)) [%] | % binding compared to no inhibitor control (MST1) [%] | % binding compared to no inhibitor control (AMPK-alpha1) [%] | % binding compared to no inhibitor control (BMPR1A) [%] | further results
COc1ccc(-c2cc3nccn3c(Nc3ncccc3C(N)=O)n2)cc1OC.Cl.Cl [BAY61-3606, 2-[7-(3,4-dimethoxyphenyl)-imidazo [1,2-c]pyrimidin-5-ylamino] nicotinamide dihydrochloride, reference compound] | 72 | 100 | 72 | 4.7 | 81 | 87 | 85 | 8.4 | 100 | 78 | 100 | 96 | 74 | 83 | 100 | 89 | 7.9 | 85 | 92 | 79 | % binding compared to no inhibitor control [4]: 100%; % binding compared to no inhibitor control (PIK3CA(Q546K)): 87%; % binding compared to no inhibitor control (TTK): 51%; % binding compared to no inhibitor control (MKNK1): 52%; % binding compared to no inhibitor control (CLK2): 12%; % binding compared to no inhibitor control (EGFR(L858R)): 100%; % binding compared to no inhibitor control (FGFR2): 100%; % binding compared to no inhibitor control (PRKD2): 53%; % binding compared to no inhibitor control (IGF1R): 97%; % binding compared to no inhibitor control (LOK): 83%; % binding compared to no inhibitor control (PRKD3): 37%; % binding compared to no inhibitor control (SgK110): 100%; % binding compared to no inhibitor control (CHEK1): 100%; % binding compared to no inhibitor control (MST4): 57%; % binding compared to no inhibitor control (ACVR2B): 77%; % binding compared to no inhibitor control (STK36): 74%; % binding compared to no inhibitor control (MST2): 97%; % binding compared to no inhibitor control (ERBB2): 93%; % binding compared to no inhibitor control (ULK3): 51%
COc1ccccc1Nc1nc(-c2ccc(OC)c(OC)c2)cc2nccn12 [BAY derivative 6] | 100 | 100 | 100 | 22 | 100 | 91 | 58 | 60 | 100 | 100 | 100 | 57 | 100 | 79 | 100 | 97 | 42 | 87 | 100 | 100 | % binding compared to no inhibitor control [4]: 60%; % binding compared to no inhibitor control (PIK3CA(Q546K)): 100%; % binding compared to no inhibitor control (TTK): 74%; % binding compared to no inhibitor control (MKNK1): 72%; % binding compared to no inhibitor control (CLK2): 63%; % binding compared to no inhibitor control (EGFR(L858R)): 88%; % binding compared to no inhibitor control (FGFR2): 83%; % binding compared to no inhibitor control (PRKD2): 100%; % binding compared to no inhibitor control (IGF1R): 79%; % binding compared to no inhibitor control (LOK): 53%; % binding compared to no inhibitor control (PRKD3): 100%; % binding compared to no inhibitor control (SgK110): 100%; % binding compared to no inhibitor control (CHEK1): 90%; % binding compared to no inhibitor control (MST4): 72%; % binding compared to no inhibitor control (ACVR2B): 100%; % binding compared to no inhibitor control (STK36): 100%; % binding compared to no inhibitor control (MST2): 82%; % binding compared to no inhibitor control (ERBB2): 71%; % binding compared to no inhibitor control (ULK3): 100%
